Publication PMC7707092, “Discovery and characterization of ORM‐11372, a novel inhibitor of the sodium‐calcium exchanger with positive inotropic activity” (British Journal of Pharmacology, 2020)

Legend:
[1] = target: T1, hERG KV11.1 current (I hERG) (Homo sapiens, UniProt Q12809); test: KV11.1 channel current (I hERG), manual patch‐clamp, CHO cells; format: cell-based
Experimental: CHO cells stably expressing either hERG1a (KV11.1) channels (KCNH2; RRID:CVCL_H512) or human 5‐HT2B receptors were cultured at 37°C in a 5% CO2/95% air atmosphere in the Ham's Nutrient Mixture F‐12 (HAM F‐12) medium supplemented with 10% FBS (heat inactivated), 100 μg·ml^−1 of hygromycin B (Invitrogen), and 100 μg·ml^−1 of geneticin or 100 IU·ml^−1 of penicillin and 100 IU·ml^−1 of streptomycin, 25‐mM HEPES, 500 μg·ml^−1 of geneticin, and 250 μg·ml^−1 of Zeocin®. Adhered cells were detached using either Detachin® solution or trypsin and replated twice a week. HEK 293 (RRID:CVCL_0045) and IMR‐32 cells (CCL‐127; RRID:CVCL_0346) were cultured similarly but maintained instead in DMEM, supplemented with 10% FBS (heat inactivated), 100 IU·ml^−1 of penicillin and 100 IU·ml^−1 of streptomycin, and 25‐mM HEPES, and in the case of the IMR‐32 cell line, with minimum essential medium (MEM) non‐essential amino acids. IMR‐32 cells are derived from a human neuroblastoma and endogenously express L‐type (CaV1.x) calcium channel (Sher, Gotti, Pandiella, Madeddu, & Clementi, 1988). […]
Values from hERG‐expressing cells (n = 4) were recorded with the standard extracellular solution at the physiological temperature and a pipette solution containing (in mM) 130 KCl, 7 NaCl, 5 EGTA, 1 MgCl2, 5 Na2ATP, and 5 HEPES (pH was set to 7.2 with KOH; osmolarity was adjusted to 290 ± 3 mOsm). […]

[2] = target: T1, hERG KV11.1 current (I hERG); test: KV11.1 channel current (I hERG), QPatch automated patch‐clamp, CHO–hERG cells; format: cell-based
Description: The hERG‐encoded voltage‐dependent potassium channel current (I hERG) cells to be studied were harvested with Detachin solution and either diluted with a volume of CHO cell serum‐free media (supplemented with 100 IU·ml^−1 of penicillin/streptomycin and 25‐mM HEPES) to obtain cells, for which the cell density was ~4 x10^6 cells·ml^−1, or plated on glass coverslips and used on the following 1–2 days. HEK 293 cells were transiently transfected using lipofectamine (Invitrogen, USA), with a human sodium voltage‐gated channel subunit 5 (hSCN5) A (transcript variant 2)‐containing plasmid, in Optimem medium. […]
In addition, after loading the CHO–hERG cell suspension, whole‐cell voltage‐clamp values were recorded at room temperature on a QPatch 16× automated patch‐clamp (Sophion Biosciences), in the single‐hole mode. […] The hERG tail current was measured as the difference between the peak tail current amplitude during the repolarization step and leak current measurement step. Subsequently, the voltage dependence of the block was also assessed, by carrying out depolarization for 4 s, from −80 to +60 mV in 10‐mV steps, before and after the addition of 20‐μM ORM‐11372 (n = 7). The peak tail current elicited during the 5 s repolarization step to −50 mV was measured and plotted against the preceding depolarization step voltage values.

T1 sequence (Q12809 whole entry): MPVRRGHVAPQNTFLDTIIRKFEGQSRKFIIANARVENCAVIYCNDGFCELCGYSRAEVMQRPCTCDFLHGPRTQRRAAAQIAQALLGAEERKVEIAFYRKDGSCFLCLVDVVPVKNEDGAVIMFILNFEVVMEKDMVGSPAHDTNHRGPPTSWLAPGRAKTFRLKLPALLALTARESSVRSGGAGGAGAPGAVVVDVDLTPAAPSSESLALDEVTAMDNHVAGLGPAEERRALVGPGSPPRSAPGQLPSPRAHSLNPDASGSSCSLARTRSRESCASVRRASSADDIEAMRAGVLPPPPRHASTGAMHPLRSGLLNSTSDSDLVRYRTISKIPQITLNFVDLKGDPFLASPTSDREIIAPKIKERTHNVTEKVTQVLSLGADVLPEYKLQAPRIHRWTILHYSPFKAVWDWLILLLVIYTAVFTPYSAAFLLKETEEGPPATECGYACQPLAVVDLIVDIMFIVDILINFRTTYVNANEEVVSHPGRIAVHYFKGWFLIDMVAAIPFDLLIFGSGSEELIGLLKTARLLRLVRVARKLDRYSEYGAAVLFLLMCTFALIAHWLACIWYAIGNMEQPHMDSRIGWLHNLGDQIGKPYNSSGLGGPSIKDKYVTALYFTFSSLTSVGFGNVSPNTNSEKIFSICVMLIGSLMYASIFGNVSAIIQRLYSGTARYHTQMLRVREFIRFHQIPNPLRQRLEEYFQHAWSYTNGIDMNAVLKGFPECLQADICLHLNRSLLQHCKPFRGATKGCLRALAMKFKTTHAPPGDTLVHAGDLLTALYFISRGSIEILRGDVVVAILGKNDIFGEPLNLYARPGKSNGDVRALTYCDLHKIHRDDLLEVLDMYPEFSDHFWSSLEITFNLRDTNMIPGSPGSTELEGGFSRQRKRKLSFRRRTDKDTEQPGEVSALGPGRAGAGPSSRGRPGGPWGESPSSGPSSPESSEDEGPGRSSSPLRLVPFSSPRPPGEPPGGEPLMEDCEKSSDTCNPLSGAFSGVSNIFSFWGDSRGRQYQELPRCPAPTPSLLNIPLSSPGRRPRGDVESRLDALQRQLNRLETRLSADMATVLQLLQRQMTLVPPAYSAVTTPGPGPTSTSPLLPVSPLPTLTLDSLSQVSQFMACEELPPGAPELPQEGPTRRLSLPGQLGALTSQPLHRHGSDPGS

For `Nc1cccc(-c2ccc(CNc3ccc(F)cc3)o2)c1` [ORM‐11372], the “safety margin (ratio), I NCX over Kv11.1 current” value [1] was ≥ 2,000, the IC50 ([1]; manual patch‐clamp, physiological temperature) was 10 µM and the “slope k of I hERG activation curve (Boltzmann fit)” value ([2]; 20 µM ORM-11372, n=7, control 6.9 ± 0.3 mV) was 5.5 ± 0.1 mV. For the same compound, the IC50 ([2]; automated patch‐clamp, room temperature) was 19.2 µM.
